Results on one compound are retold here after ChEMBL document CHEMBL4308906, “Design and synthesis of selective CYP1B1 inhibitor via dearomatization of α-naphthoflavone” (Bioorg Med Chem, 2019).

One data set addresses T1, Cytochrome P450 1A1 (Homo sapiens, UniProt P04798).
T1 sequence (P04798 whole entry): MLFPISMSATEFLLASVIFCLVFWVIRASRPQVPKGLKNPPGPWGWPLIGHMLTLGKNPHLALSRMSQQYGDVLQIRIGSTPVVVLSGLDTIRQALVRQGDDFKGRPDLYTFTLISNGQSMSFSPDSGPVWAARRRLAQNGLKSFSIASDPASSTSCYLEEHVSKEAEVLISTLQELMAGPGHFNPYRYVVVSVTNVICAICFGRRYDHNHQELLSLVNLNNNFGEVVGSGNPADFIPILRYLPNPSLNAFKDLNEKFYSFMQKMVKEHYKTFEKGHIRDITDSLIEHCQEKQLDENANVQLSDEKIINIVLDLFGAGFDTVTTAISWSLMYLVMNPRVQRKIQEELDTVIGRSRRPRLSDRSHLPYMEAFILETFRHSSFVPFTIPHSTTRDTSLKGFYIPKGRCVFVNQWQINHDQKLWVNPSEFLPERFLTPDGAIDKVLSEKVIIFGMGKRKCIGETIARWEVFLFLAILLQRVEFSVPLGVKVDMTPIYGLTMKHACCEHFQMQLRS
Nature of the data set: Inhibition of human recombinant CYP1A1 using 7-ethoxyresorufin as substrate after 15 mins in presence of NADPH by EROD assay. The class given is ADME.

Data set [1] is described as follows: Solubility of compound in pH 7.4 PBS by shake flask met. The following applies: buffer. The format is physicochemical.
Another data set concerns the target T2, CYP1A2 (Homo sapiens, UniProt P05177).
T2 sequence (P05177 whole entry): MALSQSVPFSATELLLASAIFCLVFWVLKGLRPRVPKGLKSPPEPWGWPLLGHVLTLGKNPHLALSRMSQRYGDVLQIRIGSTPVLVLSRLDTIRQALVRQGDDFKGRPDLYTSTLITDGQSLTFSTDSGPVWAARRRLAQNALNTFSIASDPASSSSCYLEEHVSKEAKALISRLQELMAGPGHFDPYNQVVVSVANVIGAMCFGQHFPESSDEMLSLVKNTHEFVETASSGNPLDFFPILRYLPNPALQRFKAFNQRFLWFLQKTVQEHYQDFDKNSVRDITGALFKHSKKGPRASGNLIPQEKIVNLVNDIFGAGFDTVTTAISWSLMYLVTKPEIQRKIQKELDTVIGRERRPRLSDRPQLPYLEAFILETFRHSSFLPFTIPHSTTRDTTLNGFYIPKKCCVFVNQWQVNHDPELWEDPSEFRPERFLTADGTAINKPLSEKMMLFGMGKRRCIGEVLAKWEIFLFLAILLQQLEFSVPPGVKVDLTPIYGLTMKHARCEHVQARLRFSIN
The data set is described as follows: Inhibition of human recombinant CYP1A2 using 7-ethoxyresorufin as substrate assessed as percent enzyme activity at 1 uM after 30 mins in presence of NADPH by EROD assay relative to control. The class given is ADME. Conditions: recombinant CYP1A2, probe 7-ethoxyresorufin, read-out: Activity. The arrangement: scale not given: the % may be the effect or the level left.

Data set [2] is described as follows: Aqueous solubility of compound in 9:1 PBS/ethanol buffer by shake flask method. The format is physicochemical.
A further data set deals with T3, CYP1A1 (Homo sapiens, UniProt P04798).
T3 sequence (P04798 whole entry): T1 sequence (P04798 whole entry)
Nature of the data set: Inhibition of human recombinant CYP1A1 using 7-ethoxyresorufin as substrate assessed as percent enzyme activity at 1 uM after 15 mins in presence of NADPH by EROD assay relative to control. The format is ADME. On the set-up: scale not given: the % may be the effect or the level left. Conditions: recombinant CYP1A1, probe 7-ethoxyresorufin, read-out: Activity.

A further data set concerns the target T4, Cytochrome P450 1B1 (Homo sapiens, UniProt Q16678).
T4 sequence (Q16678 whole entry): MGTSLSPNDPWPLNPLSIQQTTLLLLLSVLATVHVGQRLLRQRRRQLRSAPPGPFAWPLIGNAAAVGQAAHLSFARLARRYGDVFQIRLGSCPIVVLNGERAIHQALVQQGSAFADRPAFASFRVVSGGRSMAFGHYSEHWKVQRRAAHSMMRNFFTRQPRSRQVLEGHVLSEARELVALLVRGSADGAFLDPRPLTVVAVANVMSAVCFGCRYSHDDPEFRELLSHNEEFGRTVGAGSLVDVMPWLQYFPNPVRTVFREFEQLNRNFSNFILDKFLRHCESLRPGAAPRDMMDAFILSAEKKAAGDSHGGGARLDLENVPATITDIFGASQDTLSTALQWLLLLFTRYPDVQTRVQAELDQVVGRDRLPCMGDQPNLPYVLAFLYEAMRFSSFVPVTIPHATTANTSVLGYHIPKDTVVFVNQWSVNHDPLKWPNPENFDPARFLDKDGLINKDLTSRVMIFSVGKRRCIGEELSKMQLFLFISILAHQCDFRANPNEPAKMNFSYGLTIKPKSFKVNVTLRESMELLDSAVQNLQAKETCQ
Nature of the data set: Inhibition of human recombinant CYP1B1 using 7-ethoxyresorufin as substrate assessed as percent enzyme activity at 1 uM after 30 mins in presence of NADPH by EROD assay relative to control. The following applies: read-out: Activity. On the set-up: scale not given: the % may be the effect or the level left.

Converted amounts (≈) assume the structure as drawn.

Broadly, the IC50 is the concentration that inhibits the measured activity by half. What is called thermodynamic solubility is solubility found after equilibrating the solid with the medium. Turning to `O=c1cc(-c2ccccc2)oc2c1ccc1ccccc12` [ALPHA-NAPHTHOFLAVONE], the IC50 on Cytochrome P450 1A1 worked out at 53.8 nM. In data set [1], the solubility result is “Insoluble”. For the same compound, the activity at 0.5 h, 1 µM was -10.1% at CYP1A2 and -11.3% on Cytochrome P450 1B1. Also, in data set [2], the solubility (thermodynamic) came to 2.63 µM (≈ 0.716 µg/mL). Moreover, the activity at 0.25 h, 1 µM on CYP1A1 is 0.4%.
